Reference: ChEMBL document CHEMBL1201862, “PubChem BioAssay data set” (2004)
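Briefly, cells in 96-well plates were exposed to five compound concentrations for 48 h, and endpoints were estimated by linear interpolation. GI50: concentration for 50% inhibition of growth.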 Calls of active or inactive are those of the source. Cut-off read from the data, not from the text of the source: active = GI50 up to about 1.1 µM and inactive = higher.

Assays:
Test in all cases: NCI-60 cell line screen, 48 h
[1] = tested on: T47D
[2] = tested on: SNB-19
[3] = tested on: KM12
[4] = tested on: ACHN
[5] = tested on: UACC-62
[6] = tested on: OVCAR-8
[7] = tested on: SW-620
[8] = tested on: A549
[9] = tested on: NCI-H460
[10] = tested on: COLO 205
[11] = tested on: HCT-116
[12] = tested on: NCI/ADR-RES
[13] = tested on: SK-OV-3
[14] = tested on: OVCAR-4
[15] = tested on: HCC 2998
[16] = tested on: K562
[17] = tested on: HT-29
[18] = tested on: MDA-N
[19] = tested on: SNB-75
[20] = tested on: HOP-62

Row | Compound | GI50 [1] | GI50 [2] | GI50 [3] | GI50 [4] | GI50 [5] | GI50 [6] | GI50 [7] | GI50 [8] | GI50 [9] | GI50 [10] | GI50 [11] | GI50 [12] | GI50 [13] | GI50 [14] | GI50 [15] | GI50 [16] | GI50 [17] | GI50 [18] | GI50 [19] | GI50 [20]
1 | CC1(O)CC23CC1CCC2(C)C12CCCC(C)(C(=O)O1)C2CC3O (centres undefined) | > 100 µM (inactive) | > 100 µM (inactive) | > 100 µM (inactive) | > 100 µM (inactive) | > 100 µM (inactive) | > 100 µM (inactive) | > 100 µM (inactive) | > 100 µM (inactive) | > 100 µM (inactive) | > 100 µM (inactive) | > 100 µM (inactive) | > 100 µM (inactive) | > 100 µM (inactive) | > 100 µM (inactive) | > 100 µM (inactive) | > 100 µM (inactive) | > 100 µM (inactive) | > 100 µM (inactive) | > 100 µM (inactive) | 
2 | C=C1C2CCC3C4(C)CCCC(C)(C(=O)O)C4CCC3(C2)C1OC(=O)/C(C)=C/C (centres undefined) | 43 µM (inactive) |  | 17.3 µM (inactive) | 36.1 µM (inactive) | 25.6 µM (inactive) | 32.7 µM (inactive) | 61.7 µM (inactive) | 35.9 µM (inactive) | 34.6 µM (inactive) | 29.6 µM (inactive) | 38.5 µM (inactive) | 21.1 µM (inactive) | 27.5 µM (inactive) | 41.6 µM (inactive) | 26.7 µM (inactive) |  | 33.4 µM (inactive) | 22.6 µM (inactive) | 70.8 µM (inactive) | 45.6 µM (inactive)
3 | O=C1OC(C2(O)OC(=O)c3ccccc32)c2ccccc21 (centres undefined) | > 100 µM (inactive) | > 100 µM (inactive) | > 100 µM (inactive) | > 100 µM (inactive) | > 100 µM (inactive) | > 100 µM (inactive) | > 100 µM (inactive) | > 100 µM (inactive) | > 100 µM (inactive) | > 100 µM (inactive) | > 100 µM (inactive) | > 100 µM (inactive) | > 100 µM (inactive) | > 100 µM (inactive) | > 100 µM (inactive) |  | > 100 µM (inactive) | > 100 µM (inactive) | > 100 µM (inactive) | > 100 µM (inactive)
4 | Cc1cc(O)c(C(C)C)cc1/N=C/c1ccccc1O | 0.36 µM (active) | 17.5 µM (inactive) | 3.76 µM (inactive) | 11.5 µM (inactive) | 8.91 µM (inactive) | 1.8 µM (inactive) | 1.98 µM (inactive) | 18.5 µM (inactive) | 5.3 µM (inactive) | 25.5 µM (inactive) | 4 µM (inactive) | 3.12 µM (inactive) | 15.2 µM (inactive) | 2.41 µM (inactive) | 7.29 µM (inactive) | 1.26 µM (inactive) | 24.2 µM (inactive) | 3.72 µM (inactive) |  | 11.7 µM (inactive)
5 | CCc1ccccc1NC(=O)C(=O)CC(=O)c1sc(Nc2ccccc2Cl)nc1C | 35.7 µM (inactive) | 39.1 µM (inactive) | 29.6 µM (inactive) | 30.5 µM (inactive) | > 100 µM (inactive) | 35.1 µM (inactive) | 25.6 µM (inactive) | 24 µM (inactive) | 21.2 µM (inactive) | 22.2 µM (inactive) | 17.9 µM (inactive) | 25.8 µM (inactive) | 24.2 µM (inactive) | 36.8 µM (inactive) | 30.1 µM (inactive) | 29.4 µM (inactive) | 22.1 µM (inactive) | 28.8 µM (inactive) |  | 31.6 µM (inactive)
